In assay [1] the test system is bruxism patient. In words: Temporal muscle activity during sleep in bruxism patients, placebo or proton pump inhibitor (Experiment 2, double-blind). In kind it is in vivo, human. The conditions noted are these: 10 mg. As to the method: A catheter with a pH electrode was inserted into the test subject's esophagus 5 cm above the upper portion of the lower esophageal sphincter and pH was measured while the subject was asleep, while a disposable (bipolar) electrode was affixed to the skin at the front of the temporal muscle on one side. An amount of muscle activity during sleep was measured from 2.5 hours after falling asleep for a 40-minute period. At the same time, video and sound recordings were made that confirmed bruxism during sleep. […] In this Figure, when stable pH levels in the esophagus declined sharply, this was defined as an “decreased esophageal pH episode”. Measurement of temporal muscle activity during sleep in the bruxsim patient medicated with placebo or the proton pump inhibitor In a double-blind trial, test subjects were assigned to either medication with placebo or the proton pump inhibitor [sodium salt of rabeprazole (10 mg; brand name: […] (registered trademark), Eisai Co., Ltd.)] and, according to the method used in experiment 1, the amount of muscle activity during sleep in the front of the temporal muscle on one side was measured for a 4-hour period between 1 and 5 hours after falling asleep. Video and sound recordings were made at the same time that confirmed bruxism during sleep. […] A paired t test was used to test for significance, with P<0.05 defined as indicating a statistically significant difference.

Assay [2] relates to bruxism patient. As to the kind of experiment: Frequency of bruxism episodes during sleep in bruxism patients, placebo, PPI, H2RA or the combination (Experiment 3, double-blind). The following applies: FIG. 3; bruxism patients n=9; 10 mg of each drug; 4-hour period between 1 and 5 hours after falling asleep; vs placebo; paired t test, P<0.05 significant. In kind it is in vivo, human. How it is done: A catheter with a pH electrode was inserted into the test subject's esophagus 5 cm above the upper portion of the lower esophageal sphincter and pH was measured while the subject was asleep, while a disposable (bipolar) electrode was affixed to the skin at the front of the temporal muscle on one side. An amount of muscle activity during sleep was measured from 2.5 hours after falling asleep for a 40-minute period. At the same time, video and sound recordings were made that confirmed bruxism during sleep. […] In this Figure, when stable pH levels in the esophagus declined sharply, this was defined as an “decreased esophageal pH episode”. […] According to the methods used in experiment 1, the amount of muscle activity during sleep in the front of the temporal muscle on one side was measured for a 4-hour period between 1 and 5 hours after falling asleep. […]

Results on one compound are retold here after US7608625B2, “Method for treating bruxism and bruxism-related diseases” (Eisai R & D Management Co., Ltd., priority 2003, dated 2009).

Counter-ions that a name gives are not always drawn.

Regarding `COCCCOc1ccnc(C[S+]([O-])c2nc3ccccc3[nH]2)c1C` (stereo not shown) [proton pump inhibitor, sodium salt of rabeprazole], the “frequency of jaw motion accompanying rhythmical temporal muscle activity (bruxism episode)” value in assay [1] (FIG. 2(A), one bruxism patient, 4-hour period between 1 and 5 hours after falling asleep, compared to placebo) is on record as “substantial decline”. Besides, the “frequency of bruxism episodes per hour of sleep” value in assay [1] (FIG. 2(B), bruxism patients n=8, vs placebo, paired t test, ****P<0.0001) was “significantly reduces”; in assay [2], “significant reduction”. The “duration of bruxism episodes per hour of sleep” value in assay [1] (FIG. 2(B), bruxism patients n=8, vs placebo, paired t test, ***P<0.001) is “significantly reduces”.
